The source of these data is ChEMBL document CHEMBL2429799, “Systematic replacement of amides by 1,4-disubstituted[1,2,3]triazoles in Leu-enkephalin and the impact on the delta opioid receptor activity” (Bioorg Med Chem Lett, 2013).

The nature of test [1]: Agonist activity at delta opioid receptor in mouse/rat DRGF11 hybrid cells expressing GFP assessed as induction of ERK1/2 phosphorylation at 10^-9 to 10^-5 M after 5 mins by Western blotting analysis. In general terms: A western blot detects proteins with antibodies after separation by electrophoresis.
Test [2] has as its target Delta-type opioid receptor (Rattus norvegicus, UniProt P33533). As to the kind of experiment: Displacement of [3H]-deltorphin 2 from delta opioid receptor in rat GH3 cells after 60 mins by scintillation counting analysis. Format: cell-based. (In general: Loss of bound radioactivity is the signal in a displacement assay; it reports binding, not function.)
Test [3] addresses Delta-type opioid receptor (Mus musculus, UniProt P32300). As to the kind of experiment: Agonist activity at delta opioid receptor in mouse vas deferens assessed as inhibition of electrically-stimulated muscle contraction.

SMILES strings stand for the structures. Calls of active or inactive are those of the source. No cut-off for these calls is given here.

Delta-type opioid receptor (Mus musculus, UniProt P32300), sequence (P32300 whole entry): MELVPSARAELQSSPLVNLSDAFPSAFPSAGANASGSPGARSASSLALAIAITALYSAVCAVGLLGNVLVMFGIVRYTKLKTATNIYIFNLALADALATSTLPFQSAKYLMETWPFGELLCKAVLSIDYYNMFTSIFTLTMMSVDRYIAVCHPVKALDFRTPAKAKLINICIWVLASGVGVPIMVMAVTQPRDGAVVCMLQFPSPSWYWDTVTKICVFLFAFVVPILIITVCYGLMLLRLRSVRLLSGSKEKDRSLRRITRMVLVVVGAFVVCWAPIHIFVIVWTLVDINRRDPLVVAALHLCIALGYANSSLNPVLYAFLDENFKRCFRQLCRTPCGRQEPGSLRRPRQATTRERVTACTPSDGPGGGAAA
Delta-type opioid receptor (Rattus norvegicus, UniProt P33533), sequence (P33533 whole entry): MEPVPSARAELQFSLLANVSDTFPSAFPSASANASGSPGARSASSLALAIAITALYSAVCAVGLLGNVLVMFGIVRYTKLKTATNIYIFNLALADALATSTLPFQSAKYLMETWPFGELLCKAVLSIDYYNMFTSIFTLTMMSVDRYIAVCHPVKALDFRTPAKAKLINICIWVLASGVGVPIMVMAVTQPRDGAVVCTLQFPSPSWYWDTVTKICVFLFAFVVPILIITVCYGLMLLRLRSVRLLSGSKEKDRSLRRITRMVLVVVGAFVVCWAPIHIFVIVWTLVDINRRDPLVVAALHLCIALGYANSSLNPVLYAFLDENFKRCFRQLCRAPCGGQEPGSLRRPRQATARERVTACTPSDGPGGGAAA

Consider `CC(C)C[C@@H](C(=O)O)n1cc([C@H](Cc2ccccc2)NC(=O)CNC(=O)CNC(=O)[C@@H](N)Cc2ccc(O)cc2)nn1`, for which, in test [1], the result was Active. Further, the Ki (in general, a dissociation constant, usually derived from enzyme kinetics or from competition with a known ligand) in test [2] stood at 0.089 µM. For the same compound, the 50% effective concentration (EC50) (usually the concentration at which the effect is half-maximal) in test [3] was found to be 0.83 µM.
For `CC(C)C[C@H](NC(=O)[C@H](Cc1ccccc1)NC(=O)Cn1cc(CNC(=O)[C@@H](N)Cc2ccc(O)cc2)nn1)C(=O)O`, in test [2], the Ki is above 1 µM. For the same compound, in test [3], the half-maximal effective concentration (EC50) was above 1.5 µM.
Take `CC(C)C[C@H](NC(=O)[C@H](Cc1ccccc1)n1cc(CNC(=O)CNC(=O)[C@@H](N)Cc2ccc(O)cc2)nn1)C(=O)O`: affinity in test [2] was put at a Ki of 0.46 µM. Besides, in test [3], the concentration giving a half-maximal response (EC50) is above 1.5 µM.
The like results for `CC(C)C[C@H](NC(=O)[C@H](Cc1ccccc1)NC(=O)CNC(=O)Cn1cc([C@@H](N)Cc2ccc(O)cc2)nn1)C(=O)O` were, in that order, above 1 µM and above 1.5 µM.
